The SangsterLogP compilation

Test: method code SF-AS, from DOI: 10.1002/chin.198834177
Conditions: pH 5.6

Compound	logD
CC(CCC(N)=O)n1nnc2ccccc21 (stereo not given)	1.15
CCCC(C(N)=O)n1nnc2ccccc21 (stereo not given)	1.38
CCC(C(N)=O)n1nc2ccccc2n1 (stereo not given)	1.25
CCCCC(C(N)=O)n1nc2ccccc2n1 (stereo not given)	2.28
CC(C)(C(N)=O)n1nnc2ccccc21	0.76
CCOC(=O)C(C)(C)n1nnc2ccccc21	2.6
CCC(C(N)=O)n1nnc2ccccc21 (stereo not given)	0.88
CCOC(=O)CC(C)n1nc2ccccc2n1 (stereo not given)	2.7
c1ccc2nn(C3CCCCC3)nc2c1	3.63
CCOC(=O)CC(C)n1nnc2ccccc21 (stereo not given)	2.27
CCCC(C(=O)OCC)n1nc2ccccc2n1 (stereo not given)	3.38
CC(CC(N)=O)n1nnc2ccccc21 (stereo not given)	0.75
CCCC(C(N)=O)n1nc2ccccc2n1 (stereo not given)	1.75
CCOC(=O)C(CC)n1nc2ccccc2n1 (stereo not given)	2.88
CC(C(N)=O)n1nnc2ccccc21 (stereo not given)	0.35
CCOC(=O)CCC(C)n1nc2ccccc2n1 (stereo not given)	3.05
CCCCC(C(=O)OCC)n1nnc2ccccc21 (stereo not given)	3.32
CCOCC(=O)CCC(C)n1nnc2ccccc21 (stereo not given)	2.64
CCCCC(C(N)=O)n1nnc2ccccc21 (stereo not given)	1.88
CC(C(N)=O)n1nc2ccccc2n1 (stereo not given)	0.86
CC(CCC(N)=O)n1nc2ccccc2n1 (stereo not given)	1.35
CC(C)(C(N)=O)n1nc2ccccc2n1	1.16
CC(CC(N)=O)n1nc2ccccc2n1 (stereo not given)	1
CCCC(C(=O)OCC)n1nnc2ccccc21 (stereo not given)	2.82
CCOC(=O)C(C)(C)n1nc2ccccc2n1	2.98
c1ccc2c(c1)nnn2C1CCCCC1	3.11
CCOC(=O)C(C)n1nnc2ccccc21 (stereo not given)	1.87
CCOC(=O)C(CC)n1nnc2ccccc21 (stereo not given)	2.34
CCCCC(C(=O)OCC)n1nc2ccccc2n1 (stereo not given)	3.88
CCOC(=O)C(C)n1nc2ccccc2n1 (stereo not given)	2.38
